What was measured:
barnyardgrass [1] = assay: Test A preemergence; format: in vivo, Echinochloa crus-galli; conditions: for Plant response rating, Barnyardgrass: 125 g ai/ha, 0 to 100 scale where 0 is no effect and 100 is complete control; for Barnyardgrass plant response rating: 500 g ai/ha, 0 to 100 scale, 0 no effect, 100 complete control, approx. 10 days; for Barnyardgrass plant response rating (0 to 100 scale): 31 g ai/ha
Outline: (§1)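 Compounds in non-phytotoxic solvent with surfactant applied as soil spray preemergence, or postemergence to plants 2-10 cm at one- to two-leaf stage, in loam/sand. After approximately 10 days in greenhouse, injury rated visually versus untreated controls, 0 (no effect) to 100 (complete control).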

kochia [2] = assay: Test A preemergence; format: in vivo, Kochia scoparia; conditions: for Plant response rating, Kochia: 125 g ai/ha, 0 to 100 scale where 0 is no effect and 100 is complete control; for Kochia plant response rating: 500 g ai/ha, 0 to 100 scale, 0 no effect, 100 complete control, approx. 10 days; for Kochia plant response rating (0 to 100 scale): 31 g ai/ha
Outline: as §1

ragweed [3] = assay: Test A preemergence; format: in vivo, Ambrosia elatior; conditions: for Plant response rating, Ragweed: 125 g ai/ha, 0 to 100 scale where 0 is no effect and 100 is complete control; for Ragweed plant response rating: 500 g ai/ha, 0 to 100 scale, 0 no effect, 100 complete control, approx. 10 days; for Ragweed plant response rating (0 to 100 scale): 31 g ai/ha
Outline: as §1

Italian ryegrass [4] = assay: Test A preemergence; format: in vivo, Lolium multiflorum; conditions: for Plant response rating, Ryegrass, Italian: 125 g ai/ha, 0 to 100 scale where 0 is no effect and 100 is complete control; for Ryegrass, Italian plant response rating: 500 g ai/ha, 0 to 100 scale, 0 no effect, 100 complete control, approx. 10 days; for Ryegrass, Italian plant response rating (0 to 100 scale): 31 g ai/ha
Outline: as §1

giant foxtail [5] = assay: Test A preemergence; format: in vivo, Setaria faberii; conditions: for Plant response rating, Foxtail, Giant: 125 g ai/ha, 0 to 100 scale where 0 is no effect and 100 is complete control; for Foxtail, Giant plant response rating: 500 g ai/ha, 0 to 100 scale, 0 no effect, 100 complete control, approx. 10 days; for Foxtail, Giant plant response rating (0 to 100 scale): 31 g ai/ha
Outline: as §1

pigweed [6] = assay: Test A preemergence; format: in vivo, Amaranthus retroflexus; conditions: for Plant response rating, Pigweed: 125 g ai/ha, 0 to 100 scale where 0 is no effect and 100 is complete control; for Pigweed plant response rating: 500 g ai/ha, 0 to 100 scale, 0 no effect, 100 complete control, approx. 10 days; for Pigweed plant response rating (0 to 100 scale): 31 g ai/ha
Outline: as §1

barnyardgrass [7] = assay: Test A postemergence; format: in vivo, Echinochloa crus-galli
Outline: as §1

kochia [8] = assay: Test A postemergence; format: in vivo, Kochia scoparia
Outline: as §1

ragweed [9] = assay: Test A postemergence; format: in vivo, Ambrosia elatior
Outline: as §1

Italian ryegrass [10] = assay: Test A postemergence; format: in vivo, Lolium multiflorum
Outline: as §1

giant foxtail [11] = assay: Test A postemergence; format: in vivo, Setaria faberii
Outline: as §1

pigweed [12] = assay: Test A postemergence; format: in vivo, Amaranthus retroflexus
Outline: as §1

wheat = assay: Test A postemergence; format: in vivo, Triticum aestivum
Outline: as §1

corn = assay: Test A postemergence; format: in vivo, Zea mays
Outline: as §1

blackgrass = assay: Test A postemergence; format: in vivo, Alopecurus myosuroides
Outline: as §1

galium = assay: Test A postemergence; format: in vivo, Galium aparine
Outline: as §1

rice = assay: Test B flooded paddy test; format: in vivo, Oryza sativa; conditions: Flood, 250 g ai/ha; 0 to 100 scale where 0 is no effect and 100 is complete control
Outline: (§2)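 Flooded to 3 cm at the 2-leaf stage, pots received compound through the paddy water and were kept at that depth under greenhouse conditions. After 13–15 days, effect was rated by eye relative to controls, 0 = none and 100 = complete control.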

sedge, umbrella = assay: Test B flooded paddy test; format: in vivo, Cyperus difformis; conditions: Flood, 250 g ai/ha; 0 to 100 scale where 0 is no effect and 100 is complete control
Outline: as §2

Heteranthera limosa = assay: Test B flooded paddy test; format: in vivo; conditions: Flood, 250 g ai/ha; 0 to 100 scale where 0 is no effect and 100 is complete control
Outline: as §2

barnyardgrass [13] = assay: Test B flooded paddy test; format: in vivo, Echinochloa crus-galli; conditions: Flood, 250 g ai/ha; 0 to 100 scale where 0 is no effect and 100 is complete control
Outline: as §2

[14] = 125 g ai/ha, 0 to 100 scale where 0 is no effect and 100 is complete control
[15] = 500 g ai/ha, 0 to 100 scale, 0 no effect, 100 complete control
[16] = 500 g ai/ha, 0 to 100 scale where 0 is no effect and 100 is complete control
[17] = 31 g ai/ha, 0 to 100 scale, 0 no effect, 100 complete control

Compound | Plant response rating, Barnyardgrass (barnyardgrass [1]) | Barnyardgrass plant response rating (barnyardgrass [1]) | Plant response rating, Kochia (kochia [2]) | Kochia plant response rating (kochia [2]) | Plant response rating, Ragweed (ragweed [3]) | Ragweed plant response rating (ragweed [3]) | Plant response rating, Ryegrass, Italian (Italian ryegrass [4]) | Ryegrass, Italian plant response rating (Italian ryegrass [4]) | Plant response rating, Foxtail, Giant (giant foxtail [5]) | Plant response rating, Pigweed (pigweed [6]) | Plant response rating, Barnyardgrass (barnyardgrass [7]; [14]) | Plant response rating, Kochia (kochia [8]; [14]) | Plant response rating, Foxtail, Giant (giant foxtail [11]; [14]) | Plant response rating, Corn (corn; [14]) | Plant response rating, Blackgrass (blackgrass; [14]) | Plant response rating, Galium (galium; [14]) | Plant response rating, Rice (rice) | Plant response rating, Sedge, Umbrella (sedge, umbrella) | Plant response rating, Ducksalad (Heteranthera limosa) | Plant response rating, Barnyardgrass (barnyardgrass [13]) | other results
CC(C)(C)c1cnn(-c2c(C#N)cccc2Oc2ncc(Cl)cn2)c1 [Compound 82] | 0 | 30 | 0 | 0 | 0 | 0 | 0 | 0 | 10 | 0 | 0 | 0 | 0 | 0 | 10 | 10 | 0 | 0 | 30 | 0 | Foxtail, Giant plant response rating (giant foxtail [5]): 70; Pigweed plant response rating (pigweed [6]): 60; Plant response rating, Barnyardgrass (barnyardgrass [7]; [15]): 20; Plant response rating, Kochia (kochia [8]; [16]): 10; Plant response rating, Ragweed (ragweed [9]; [14]): 0; Plant response rating, Ragweed (ragweed [9]; [16]): 10; Plant response rating, Ryegrass, Italian (Italian ryegrass [10]; [14]): 0; Plant response rating, Ryegrass, Italian (Italian ryegrass [10]; [16]): 20; Plant response rating, Foxtail, Giant (giant foxtail [11]; [16]): 20; Plant response rating, Pigweed (pigweed [12]; [14]): 10; Plant response rating, Pigweed (pigweed [12]; [16]): 40; Plant response rating, Wheat (wheat; [14]): 0; Plant response rating, Wheat (wheat; [16]): 30; Plant response rating, Corn (corn; [15]): 10; Plant response rating, Blackgrass (blackgrass; [15]): 50; Plant response rating, Galium (galium; [16]): 20
N#Cc1cnn(-c2c(C#N)cccc2Oc2ncc(I)cn2)c1 [Compound 91] | 0 | 0 | 30 | 90 | 0 | 0 | 0 | 30 | 10 | 70 | 0 | 10 | 10 | 0 | 0 | 40 | 0 | 0 | 0 | 0 | Foxtail, Giant plant response rating (giant foxtail [5]): 30; Pigweed plant response rating (pigweed [6]): 90; Plant response rating, Barnyardgrass (barnyardgrass [7]; [16]): 10; Plant response rating, Kochia (kochia [8]; [16]): 30; Plant response rating, Ragweed (ragweed [9]; [14]): 10; Plant response rating, Ragweed (ragweed [9]; [16]): 30; Plant response rating, Ryegrass, Italian (Italian ryegrass [10]; [14]): 0; Plant response rating, Ryegrass, Italian (Italian ryegrass [10]; [16]): 0; Plant response rating, Foxtail, Giant (giant foxtail [11]; [16]): 10; Plant response rating, Pigweed (pigweed [12]; [14]): 10; Plant response rating, Pigweed (pigweed [12]; [16]): 50; Plant response rating, Wheat (wheat; [14]): 0; Plant response rating, Wheat (wheat; [16]): 10; Plant response rating, Corn (corn; [16]): 0; Plant response rating, Blackgrass (blackgrass; [16]): 30; Plant response rating, Galium (galium; [16]): 70
N#Cc1cccc(Oc2ncc(Cl)cn2)c1-n1cc(OCC(F)F)cn1 [Compound 99] | 90 | – | 100 | – | 90 | – | 30 | – | 100 | 100 | 100 | 100 | 100 | 90 | 90 | 100 | 0 | 0 | 0 | 0 | Barnyardgrass plant response rating (0 to 100 scale) (barnyardgrass [1]): 80; Kochia plant response rating (0 to 100 scale) (kochia [2]): 100; Ragweed plant response rating (0 to 100 scale) (ragweed [3]): 70; Ryegrass, Italian plant response rating (0 to 100 scale) (Italian ryegrass [4]): 0; Foxtail, Giant plant response rating (0 to 100 scale) (giant foxtail [5]): 100; Pigweed plant response rating (0 to 100 scale) (pigweed [6]): 100; Plant response rating, Barnyardgrass (barnyardgrass [7]; [17]): 100; Plant response rating, Kochia (kochia [8]; [17]): 100; Plant response rating, Ragweed (ragweed [9]; [17]): 30; Plant response rating, Ryegrass, Italian (Italian ryegrass [10]; [17]): 20; Plant response rating, Foxtail, Giant (giant foxtail [11]; [17]): 90; Plant response rating, Pigweed (pigweed [12]; [17]): 100; Plant response rating, Wheat (wheat; [17]): 50; Plant response rating, Corn (corn; [17]): 20; Plant response rating, Blackgrass (blackgrass; [17]): 50; Plant response rating, Galium (galium; [17]): 90
CC(C)Oc1cnn(-c2c(Cl)cccc2Oc2ncc(Cl)cn2)c1 [Compound 103] | 0 | – | 0 | – | 0 | – | 0 | – | 0 | 0 | 0 | 0 | 0 | 0 | 0 | 0 | 0 | 0 | 0 | 0 | Barnyardgrass plant response rating (0 to 100 scale) (barnyardgrass [1]): 0; Kochia plant response rating (0 to 100 scale) (kochia [2]): 0; Ragweed plant response rating (0 to 100 scale) (ragweed [3]): 0; Ryegrass, Italian plant response rating (0 to 100 scale) (Italian ryegrass [4]): 0; Foxtail, Giant plant response rating (0 to 100 scale) (giant foxtail [5]): 0; Pigweed plant response rating (0 to 100 scale) (pigweed [6]): 0; Plant response rating, Barnyardgrass (barnyardgrass [7]; [17]): 0; Plant response rating, Kochia (kochia [8]; [17]): 0; Plant response rating, Ragweed (ragweed [9]; [17]): 0; Plant response rating, Ryegrass, Italian (Italian ryegrass [10]; [17]): 0; Plant response rating, Foxtail, Giant (giant foxtail [11]; [17]): 0; Plant response rating, Pigweed (pigweed [12]; [17]): 0; Plant response rating, Wheat (wheat; [17]): 0; Plant response rating, Corn (corn; [17]): 0; Plant response rating, Blackgrass (blackgrass; [17]): 0; Plant response rating, Galium (galium; [17]): 0
